Consider 17 compounds from US3984432A, “Color photographic recording material” (priority 1973, dated 1976).

One data set can be described thus: Absorption maximum after colour development in a photographic silver halide layer according to Use Example I. The data set is classed as physicochemical.
Conditions: not given
As to the method:
The compounds of the formulae which follow are prepared according to methods which are in themselves known, from the corresponding 4-equivalentcoupling agents (the corresponding compounds with hydrogen in the position marked with *, in place of the substituents drawn). With regard to methods of manufacture, compare DT-OS or DT-AS 1,236,332, 2,043,271, 1,547,672 or 1,187,477. Next to the formula, the absorption maximum in nm is specified in each case (see footnote to Table I). ##SPC8##
*)After colour development of the coupling agents in a photographic silve
halide layer according to Use Example I
0.3 mmol of coupling agent of the formula (215) is dissolved in 2.0 ml of tricresyl phosphate/methylene chloride (3:7). The methylene chloride is evaporated off, 6.0 ml of an 8% strength aqueous solution of sodium isopropylnaphthalene-sulphonate, 20.0 ml of 6% strength gelatine solution and 3.4 ml of water are added and the mixture is adjusted to pH 6.5 and emulsified for 5 minutes by means of an ultrasonic apparatus with an output of 100 watt.
5.0 of coupling agent emulsion freshly treated with ultrasonics, 3.3 ml of silver bromide emulsion of pH 6.5, containing 1.4% of silver and 6.0% of gelatine, 2.0 ml of 1% strength aqueous solution of the hardener of the formula [formula] and 1.7 ml of water are mixed with one another and cast at 40°C on a substrated glass plate of size 13 cm × 18 cm. After solidifying at 10° C, the plate is dried in a drying cabinet with circulating air at 32° C.
A strip cut to 4.0 cm × 6.5 cm is exposed to 500 Lux/cm^2 under a step wedge for 2 seconds and is subsequently treated at 24° C as follows: […]
Turning to `CCCCC(CC)COP(=O)(CCCOc1cccc(C(=O)Nc2cccc(C(=O)CC(=O)Nc3cc(C)ccc3OC)c2)c1)OCC(CC)CCCC` (stereo not shown) [(120)], the “Abs.max. (single maximum)” value stood at 434 nm.
For the compound `CCOP(=O)(CCCc1ccc(NC(=O)CC(=O)C(C)(C)C)cc1)OCC` [(103)], the “Abs.max. (single maximum)” value is 429 nm.
Still for that read-out and setting: the figure for `Cc1ccc(C(=O)NCCCP2(=O)OCC(C)(C)CO2)cc1NC(=O)CC(=O)c1ccc(Cl)cc1` [(139)] is 441 nm; for `CCOP(=O)(CCCN(C)c1cccc(NC(=O)CC(=O)c2ccccc2)c1)OCC` [(104)] it is 435 nm.
Consider `CCCCOP(=O)(CCCOc1cccc(C(=O)Nc2cccc(C(=O)CC(=O)Nc3cc(C)ccc3OC)c2)c1)OCCCC` [(121)], for which the “Abs.max. (single maximum)” value stood at 434 nm.
For the compound `CCOP(=O)(OCC)C(C)(C)NC(=O)c1cc(NC(=O)CC(=O)c2ccccc2)cc(C(=O)NC(C)(C)P(=O)(OCC)OCC)c1` [(111)], the “Abs.max. (single maximum)” value worked out at 440 nm.

The data set is the same for the next values; noted with them: pyrazolone coupling agents.
As for `CCCCOP(=O)(CCCOc1cccc(C(=O)NC2=NN(c3c(Cl)cc(Cl)cc3Cl)C(=O)C2)c1)OCCCC` [(237)], the “Abs.max., first of two maxima (subsidiary maximum)” value (“Abs.max., first of two maxima” for short) was found to be 432 nm and the “Abs.max., second of two maxima (absorption maximum)” value (“Abs.max., second of two maxima” below) came out at 536 nm.
Consider `CCOP(=O)(CCCOc1cccc(C(=O)Nc2cccc(NC3=NN(c4c(Cl)cc(Cl)cc4Cl)C(=O)C3)c2)c1)OCC` [(415)], for which the “Abs.max., first of two maxima” value turned out to be 426 nm and the “Abs.max., second of two maxima” value is given as 532 nm.
With `CCCCOP(=O)(CCCOc1cc(OCCCP(=O)(OCCCC)OCCCC)cc(C(=O)NC2=NN(c3nc4ccccc4s3)C(=O)C2)c1)OCCCC` [(257)], the “Abs.max., first of two maxima” value is given as 430 nm and the “Abs.max., second of two maxima” value is listed as 537 nm.
On to `CC(C)OP(=O)(CCCCCOc1cccc(C(=O)Nc2cccc(C(=O)NC3=NN(c4c(Cl)cc(Cl)cc4Cl)C(=O)C3)c2)c1)OC(C)C` [(245)], for which the “Abs.max., first of two maxima” value worked out at 434 nm and the “Abs.max., second of two maxima” value stood at 542 nm.
`CCCCC(CC)COP(=O)(CCCOc1cccc(C(=O)Nc2ccc(C(=O)NC3=NN(c4c(Cl)cc(Cl)cc4Cl)C(=O)C3)cc2)c1)OCC(CC)CCCC` (stereo not shown) [(215)]: the “Abs.max., first of two maxima” value is 434 nm and the “Abs.max., second of two maxima” value came out at 540 nm.
For `CCCCC(CC)COP(=O)(CCCOc1cccc(C(=O)Nc2cccc(NC3=NN(c4ccccc4)C(=O)C3)c2)c1)OCC(CC)CCCC` (stereo not shown) [(421)] the same measures were 430 nm and 528 nm.
As to `CCOP(=O)(CCCOc1cccc(C(=O)Nc2cccc(C(=O)NC3=NN(c4c(Cl)cc(Cl)cc4Cl)C(=O)C3)c2)c1)OCC` [(205)], the “Abs.max., first of two maxima” value stood at 434 nm and the “Abs.max., second of two maxima” value is on record as 542 nm.
Regarding `CC(C)OP(=O)(CCCOc1cccc(C(=O)Nc2cccc(C(=O)NC3=NN(c4c(Cl)cc(Cl)cc4Cl)C(=O)C3)c2)c1)OC(C)C` [(232)], the “Abs.max., first of two maxima” value worked out at 434 nm and the “Abs.max., second of two maxima” value is on record as 541 nm.
In the case of `CCCCOP(=O)(CCCOc1cc(OCCCP(=O)(OCCCC)OCCCC)cc(C(=O)Nc2cccc(NC3=NN(c4ccccc4)C(=O)C3)c2)c1)OCCCC` [(423)], the “Abs.max., first of two maxima” value is 430 nm and the “Abs.max., second of two maxima” value is 530 nm.
In the case of `CCOP(=O)(CCCOc1cccc(C(=O)NC2=NN(c3c(Cl)cc(Cl)cc3Cl)C(=O)C2)c1)OCC` [(202)], the “Abs.max., first of two maxima” value was 434 nm and the “Abs.max., second of two maxima” value was found to be 535 nm.
For `CCCCC(CC)COP(=O)(CCCOc1cc(OCCCP(=O)(OCC(CC)CCCC)OCC(CC)CCCC)cc(C(=O)Nc2cccc(C(=O)NC3=NN(c4ccccc4)C(=O)C3)c2)c1)OCC(CC)CCCC` (stereo not shown) [(235)] the same measures were 440 nm and 532 nm.
